According to publication PMC11384906, “PAR1-mediated Non-periodical Synchronized Calcium Oscillations in Human Mesangial Cells” (Function, 2024):

Tests used:
[1] = system: freshly isolated Wistar rat glomeruli; settings: Ang II 60 µM, acute application; text b29 words it 'up to'
From the text: Sixteen-week Wistar Kyoto male rats were obtained from Charles River and were kept in a light-controlled environment with a 12:12-h light/dark cycle and given free access to water (filtered, RO water) and food (5V75-PicoLab Verified 75 IF, LabDiet, USA).
Briefly, male Wistar rat kidneys were harvested, decapsulated, and used to isolate glomeruli by differential sieving. Freshly isolated glomeruli were collected and stored on ice in a 15-mL tube with a 5% BSA (Sigma-Aldrich, # A8327)/RPMI-1640 solution with non-permeable 150 kDa TRITC-dextran (1 mg/mL, TdB Labs, #TD150, Uppsala, Sweden). […] Glomeruli were attached to poly-L-lysine covered glass-bottom dishes and covered with the extracellular solution containing 150 kDa TRITC dextran. Z-stacks with 18 consecutive focal planes (3 µm each) were collected every 1 min, allowing glomeruli volume reconstruction. Output files were imported into Imaris Software (Oxford Bitplane, version 9.6.1), reconstructed in 3D, and processed to calculate glomerular volume.

[2] = system: mesangial cells; settings: cited from earlier work
[3] = system: platelets; settings: cited from earlier work
[4] = system: endothelial cells; settings: cited from earlier work
[5] = system: vascular smooth muscle cells; settings: cited from earlier work
[6] = system: monocytes; settings: cited from earlier work
[7] = system: neuronal cells; settings: cited from earlier work
[8] = system: MCs; settings: cited from earlier work

| Substance | Glomerular volume reduction [1] [%] | Concentration at which significant Ca2+ response was detected [2] | Concentration at which significant Ca2+ response was detected (molar equivalent) ([2]; equivalent of 0.1 U/mL) | Thrombin concentration sufficient to induce Ca2+ mobilization [3] [U/mL] | Thrombin concentration required to activate endothelial cells [4] [U/mL] | Thrombin concentration required to activate vascular smooth muscle cells [5] [U/mL] | Thrombin concentration required to activate intracellular Ca2+ signaling [6] | Thrombin concentration required to activate intracellular Ca2+ signaling [7] | Effect on MC proliferation and synthesis [8] |
| --- | --- | --- | --- | --- | --- | --- | --- | --- | --- |
| Angiotensin II [Ang II] | 20.7 | – | – | – | – | – | – | – | – |
| thrombin | – | around 0.1 U/mL | approximately 1 nM | 0.1 to 1 | 0.5 to 2 | 0.5 to 2 | 1-5 U/mL | 1-5 U/mL | stimulate MC proliferation and synthesis of prostaglandins, nitric oxide, endothelin-1, extracellular matrix components, and chemokines |
